Inhibition and IC50 data for 33 molecules are collected here from patent publication US11964960B2 (Cornell University, priority 2018, dated 2024).

Structures can show the parent of a compound that is named as a salt. Some results are limits rather than exact numbers.

In the first experiment the target is T1, S1P2 (Homo sapiens, UniProt O95136).
T1 construct: Flag; expressed in transfected cells; host or cells: Chinese hamster ovary (CHO) cells, doxycycline-inducible (CHO-S1P2-FL / CHO-S1PR2 FL)
T1 sequence (O95136 whole entry, species assumed): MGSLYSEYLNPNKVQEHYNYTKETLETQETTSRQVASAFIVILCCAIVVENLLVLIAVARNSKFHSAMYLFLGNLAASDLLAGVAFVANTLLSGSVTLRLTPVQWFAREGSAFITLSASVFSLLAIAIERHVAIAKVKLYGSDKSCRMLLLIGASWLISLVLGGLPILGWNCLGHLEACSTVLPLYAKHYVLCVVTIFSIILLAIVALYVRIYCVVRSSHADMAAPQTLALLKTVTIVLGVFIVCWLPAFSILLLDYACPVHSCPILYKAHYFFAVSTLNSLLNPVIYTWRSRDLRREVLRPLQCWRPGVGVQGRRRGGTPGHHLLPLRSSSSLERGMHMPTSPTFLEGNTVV
The experiment can be described thus: GLISA RhoA activation - antagonist assay. The format is cell-based. Conditions: 1 μM compound, CHO-S1P2-FL cells. On the procedure: GLISA RhoA Activation—Antagonist Assay
GLISA assays were performed using RhoA (BK124) activation kit purchased from Cytoskeleton Inc., Denver, CO Doxycycline-inducible Flag-tag S1P2 expressing Chinese hamster ovary (CHO) cells (CHO-S1P2-FL) were seeded in a 6-well plate, 1.5×10^5 cells per well. Cells were stimulated with […] of Doxycycline to induce S1P2 expression in serum free IMDM media with 0.1% BSA/PBS. Following day, cells were stimulated with the compounds described herein (1 nM-10 μM) or 1 μM JTE-013 for 1 hour at 37° C. Following compound incubation, cells were washed with PBS×3 and induced with 100 nM […] for 5 min. […] Protein concentration was examined using GLISA—Precision Red Advanced Protein assay reagent as described in assay manual. Lysates were immobilized on GTP-bound capture plate and GLISA assay was performed based on manufacture recommendations as reported previously.
Broadly, the inhibition is how much of the control response was suppressed. `Cc1cc(C(=O)C(C)n2cc(Br)ccc2=O)c(C)n1Cc1ccc(C#N)cc1` (centres unmarked) [Compound 16, 4-((3-(2-(5-bromo-2-oxopyridin-1(2H)-yl)propanoyl)-2,5-dimethyl-1H-pyrrol-1-yl)methyl)benzonitrile] came in with an inhibition at 1 µM of 39%. Still for that read-out and setting: the figure for `Cc1cc(C(=O)C(C)n2cc(Br)ccc2=O)c(C)n1Cc1ccccc1C#N` (centres unmarked) [Compound 17, 2-((3-(2-(5-bromo-2-oxopyridin-1(2H)-yl)propanoyl)-2,5-dimethyl-1H-pyrrol-1-yl)methyl)benzonitrile] is 63%; for `Cc1cc(C(=O)C(C)n2cc(Br)ccc2=O)c(C)n1Cc1ccc(F)cc1` (centres unmarked) [Compound 18, 5-bromo-1-(1-(1-(4-fluorobenzyl)-2,5-dimethyl-1H-pyrrol-3-yl)-1-oxopropan-2-yl)pyridin-2(1H)-one] it is 76%; for `Cc1cc(C(=O)C(C)n2cc(Br)ccc2=O)c(C)n1Cc1ccccc1F` (centres unmarked) [Compound 19, 5-bromo-1-(1-(1-(2-fluorobenzyl)-2,5-dimethyl-1H-pyrrol-3-yl)-1-oxopropan-2-yl)pyridin-2(1H)-one] it is 44%. Same read-out and setting: to `Cc1cc(C(=O)C(C)n2cc(Br)ccc2=O)c(C)n1Cc1ccc(F)c(F)c1` (centres unmarked) [Compound 20, 5-bromo-1-(1-(1-(3,4-difluorobenzyl)-2,5-dimethyl-1H-pyrrol-3-yl)-1-oxopropan-2-yl)pyridn-2(1H)-one] belongs 46%; to `Cc1cc(C(=O)C(C)n2cc(Br)ccc2=O)c(C)n1Cc1cccc(C(F)F)c1` (centres unmarked) [Compound 21, 5-bromo-1-(1-(1-(3-(difluoromethyl)benzyl)-2,5-dimethyl-1H-pyrrol-3-yl)-1-oxopropan-2-yl)pyridin-2(1H)-one], 42%. The same measure, in the same setting: to `Cc1cc(C(=O)C(C)n2cc(Br)ccc2=O)c(C)n1Cc1cccc(Cl)c1` (centres unmarked) [Compound 22, 5-bromo-1-(1-(1-(3-chlorobenzyl)-2,5-dimethyl-1H-pyrrol-3-yl)-1-oxopropan-2-yl)pyridin-2(1H)-one] belongs 73%; to `Cc1cc(C(=O)C(C)n2cc(Br)ccc2=O)c(C)n1Cc1cccc(C(=O)O)c1` (centres unmarked) [Compound 23, 3-((3-(2-(5-bromo-2-oxopyridin-1(2H)-yl)propanoyl)-2,5-dimethyl-1H-pyrrol-1-yl)metnyl)benzoic add], 69%; to `Cc1cc(C(=O)C(C)n2cc(Br)ccc2=O)c(C)n1Cc1cccnc1` (centres unmarked) [Compound 24, 5-bromo-1-(1-(2,5-dimethyl-1-(pyridin-3-ylmethyl)-1H-pyrrol-3-yl)-1-oxopropan-2-yl)pyridin-2(1H)-one], 73%. On to `Cc1cc(C(=O)C(C)n2cc(Br)ccc2=O)c(C)n1Cc1ccncc1` (centres unmarked) [Compound 25, 5-bromo-1-(1-(2,5-dimethyl-1-(pyridin-4-ylmethyl)-1H-pyrrol-3-yl)-1-oxopropan-2-yl)pyridin-2(1H)-one], for which testing at 1 µM gave an inhibition of 39%. The same measure, in the same setting: to `CC#Cc1ccc(=O)n(CC(=O)c2cc(C)n(Cc3ccccc3)c2C)c1` [Compound 26, 1-(2-(1-benzyl-2,5-dimethyl-1H-pyrrol-3-yl)-2-oxoethyl)-5-(prop-1-yn-1-yl)pyridin-2(1H)-one] belongs 55%; to `Cc1cc(C(=O)Cn2cc(Br)ccc2=O)c(C)n1Cc1ccc(F)cc1` [Compound 28, 5-bromo-1-(2-(1-(4-fluorobenzyl)-2,5-dimethyl-1H-pyrrol-3-yl)-2-oxoethyl)pyridin-2(1H)-one], 58%; to `Cc1nc(C(=O)Cn2cc(Br)ccc2=O)c(C)n1Cc1ccc(F)cc1` [Compound 30, 5-bromo-1-(2-(1-(4-fluorobenzyl)-2,5-dimethyl-1H-imidazol-4-yl)-2-oxoethyl)pyridin-2(1H)-one], 64%. Molecule `C#Cc1ccc(=O)n(CC(=O)c2cc(C)n(Cc3ccc(F)cc3)n2)c1` [Compound 31, 5-ethynyl-1-(2-(1-(4-fluorobenzyl)-5-methyl-1H-pyrazol-3-yl)-2-oxoethyl)pyridin-2(1H)-one] had an inhibition at 1 µM of 69%. Regarding `Cc1nnc(Cn2c(C)cc(C(=O)C(C)n3cc(Br)ccc3=O)c2C)o1` (centres unmarked) [Example 57, 5-Bromo-1-(1-(2,5-dimethyl-1-((5-methyl-1,3,4-oxadiazol-2-yl)methyl)-1H-pyrrol-3-yl)-1-oxopropan-2-yl)pyridin-2(1H)-one], the inhibition at 1 µM came to 10%. `Cc1cc(C(=O)C(C)n2cc(Br)ccc2=O)c(C)n1CC1CC1` (centres unmarked) [Example 58, 5-Bromo-1-(1-(1-(cyclopropylmethyl)-2,5-dimethyl-1H-pyrrol-3-yl)-1-oxopropan-2-yl)pyridin-2(1H)-one]: the inhibition at 1 µM was less than 10%.

Consider `Cc1cc(C(=O)C(C)n2cc(Br)ccc2=O)c(C)n1CC1CCC1` (centres unmarked) [Example 59, 5-Bromo-1-(1-(1-(cyclobutylmethyl)-2,5-dimethyl-1H-pyrrol-3-yl)-1-oxopropan-2-yl)pyridin-2(1H)-one], for which the inhibition at 1 µM is less than 10%.

In turn, `COc1cccc(Cn2c(C)cc(C(=O)C(C)n3cc(Br)ccc3=O)c2C)c1` (centres unmarked) [Example 60, 5-Bromo-1-(1-(1-(3-methoxybenzyl)-2,5-dimethyl-1H-pyrrol-3-yl)-1-oxopropan-2-yl)pyridin-2(1H)-one] gave an inhibition at 1 µM of less than 10%.

The experiment is the same for the next values; noted with them: CHO-S1P2-FL cells, 1 hour compound incubation, then for 5 min.
For orientation: IC50 means the concentration at which inhibition is half-maximal. Higher therefore signals a need for much substance. In turn, `Cc1cc(C(=O)C(C)n2cc(Br)ccc2=O)c(C)n1Cc1cccc(Cl)c1` (centres unmarked) [Compound 22, 5-bromo-1-(1-(1-(3-chlorobenzyl)-2,5-dimethyl-1H-pyrrol-3-yl)-1-oxopropan-2-yl)pyridin-2(1H)-one] returned an IC50 of 793 nM. On the same count and under the same terms, to `Cc1cc(C(=O)C(C)n2cc(Br)ccc2=O)c(C)n1Cc1cccc(C(=O)O)c1` (centres unmarked) [Compound 23, 3-((3-(2-(5-bromo-2-oxopyridin-1(2H)-yl)propanoyl)-2,5-dimethyl-1H-pyrrol-1-yl)metnyl)benzoic add] belongs 297 nM; to `CC#Cc1ccc(=O)n(CC(=O)c2cc(C)n(Cc3ccccc3)c2C)c1` [Compound 26, 1-(2-(1-benzyl-2,5-dimethyl-1H-pyrrol-3-yl)-2-oxoethyl)-5-(prop-1-yn-1-yl)pyridin-2(1H)-one], 194 nM; to `Cc1nc(C(=O)Cn2cc(Br)ccc2=O)c(C)n1Cc1ccc(F)cc1` [Compound 30, 5-bromo-1-(2-(1-(4-fluorobenzyl)-2,5-dimethyl-1H-imidazol-4-yl)-2-oxoethyl)pyridin-2(1H)-one], 595 nM. Still for that read-out and setting: to `C#Cc1ccc(=O)n(CC(=O)c2cc(C)n(Cc3ccc(F)cc3)n2)c1` [Compound 31, 5-ethynyl-1-(2-(1-(4-fluorobenzyl)-5-methyl-1H-pyrazol-3-yl)-2-oxoethyl)pyridin-2(1H)-one] belongs 253 nM; to `O=c1ccc(Br)cn1Cc1nccc2c1cnn2Cc1ccccc1` [Compound 130, 1-((1-Benzyl-1H-pyrazolo[4,3-c]pyridin-4-y)methyl)-5-bromopyridin-2(1H)-one hydrochloride], 140 nM; to `C#Cc1ccc(=O)n(Cc2nccc3c2cnn3Cc2ccccc2)c1` [Compound 131, 1-((1-benzyl-1H-pyrazolo[4,3-c]pyridin-4-yl)methyl)-5-ethynylpyridin-2(1H)one hydrochloride], 58 nM. Still for that read-out and setting: to `Cc1cc(C(=O)Cn2c(C)c(C#N)ccc2=O)c(C)n1Cc1ccccc1` [Example 44, 1-(2-(1-Benzyl-2,5-dimethyl-1H-pyrrol-3-yl)-2-oxoethyl)-2-methyl-6-oxo-1,6-dihydropyridine-3-carbonitrile] belongs greater than 10000 nM. Molecule `Cc1cc(C(=O)Cn2cc(Cl)ccc2=O)c(C)n1Cc1ccccc1` [Example 45, 1-(2-(1-Benzyl-2,5-dimethyl-1H-pyrrol-3-yl)-2-oxoethyl)-5-chloropyridin-2(1H)-one] registered an IC50 greater than 10000 nM. On the same count and under the same terms, to `Cc1cc(C(=O)Cn2cc(C(=O)O)ccc2=O)c(C)n1Cc1ccccc1` [Example 46, 1-(2-(1-Benzyl-2,5-dimethyl-1H-pyrrol-3-yl)-2-oxoethyl)-6-oxo-1,6-dihydropyridine-3-carboxylic Acid] belongs greater than 10000 nM.

For the molecule `Cc1cc(C(=O)Cn2cc(C#N)ccc2=O)c(C)[nH]1` [Example 47, 1-(2-(2,5-Dimethyl-1H-pyrrol-3-yl)-2-oxoethyl)-6-oxo-1,6-dihydropyridine-3-carbonitrile], the IC50 is greater than 10000 nM. Same read-out and setting: to `Cc1cc(C(=O)C(Cc2ccc(-c3ccccc3)cc2)n2cc(C#N)ccc2=O)c(C)[nH]1` (centres unmarked) [Example 48, 1-(3-((1,1′-Biphenyl)-4-yl)-1-(2,5-dimethyl-1H-pyrrol-3-yl)-1-oxopropan-2-yl)-6-oxo-1,6-dihydropyridine-3-carbonitrile] belongs greater than 10000 nM; to `Cc1cc(=O)n(CC(=O)c2cc(C)n(Cc3ccccc3)c2C)cc1C#N` [Example 49, 1-(2-(1-Benzyl-2,5-dimethyl-1H-pyrrol-3-yl)-2-oxoethyl)-4-methyl-6-oxo-1,6-dihydropyridine-3-carbonitrile], greater than 10000 nM; to `COc1ccc(=O)n(CC(=O)c2cc(C)n(Cc3ccccc3)c2C)c1` [Example 50, 1-(2-(1-Benzyl-2,5-dimethyl-1H-pyrrol-3-yl)-2-oxoethyl)-5-methoxypyridin-2(1H)-one], greater than 10000 nM. Same read-out and setting: to `Cc1cc(C(=O)C(Cc2ccccc2)n2cc(C#N)ccc2=O)c(C)n1Cc1ccccc1` (centres unmarked) [Example 51, 1-(1-(1-Benzyl-2,5-dimethyl-1H-pyrrol-3-yl)-1-oxo-3-phenylpropan-2-yl)-6-oxo-1,6-dihydropyridine-3-carbonitrile] belongs greater than 10000 nM; to `Cc1cc(C(=O)C(C)n2cc(C#N)ccc2=O)c(C)n1Cc1ccccc1` (centres unmarked) [Example 52, 1-(1-(1-Benzyl-2,5-dimethyl-1H-pyrrol-3-yl)-1-oxopropan-2-yl)-6-oxo-1,6-dihydropyridine-3-carbonitrile], greater than 10000 nM. In turn, `Cc1cc(C(=O)Cn2cc(C(C)(C)C)ccc2=O)c(C)n1Cc1ccccc1` [Example 53, 1-(2-(1-Benzyl-2,5-dimethyl-1H-pyrrol-3-yl)-2-oxoethyl)-5-(tert-butyl)pyridin-2(1H)-one] displayed an IC50 greater than 10000 nM. On the same count and under the same terms, to `CC(=O)Nc1ccc(=O)n(CC(=O)c2cc(C)n(Cc3ccccc3)c2C)c1` [Example 54, N-(1-(2-(1-Benzyl-2,5-dimethyl-1H-pyrrol-3-0)-2-oxoethyl)-6-oxo-1,6-dihydropyridin-3-yl)acetamide] belongs greater than 10000 nM; to `Cc1c(C(=O)Cn2nc(Br)ccc2=O)cnn1Cc1ccccc1` [Example 55, 2-(2-(1-Benzyl-5-methyl-1H-pyrazol-4-yl)-2-oxoethyl)-6-bromopyridazin-3(2H)-one], 110 nM.

In the case of `Cc1c(C(=O)Cn2cc(Br)cnc2=O)cnn1Cc1ccccc1` [Example 56, 1-(2-(1-Benzyl-5-methyl-1H-pyrazol-4-yl)-2-oxoethyl)-5-bromopyrimidin-2(1H)-one], the IC50 is 200 nM.
